PubChem BioAssay AID2060614 (Molecular Pharmacology Branch, DTP, NCI, 2025)

Tested on: 598228-144-R-J1-PDC complex spheroids, viability
Experiment: Anticancer human tumor 598228-144-R-J1-PDC patient-derived serous endometrial adenocarcinoma cell line growth inhibition [CLK]
Details: for IC50: curve of first compound; for viability, T/C: stronger effect = lower value
Source text: A high-throughput screen of multi-cell type tumor spheroids was designed to identify active combinations of […] and targeted small molecules. Complex spheroids include a stromal component modeled by human endothelial cells (HUVEC) and fibroblasts modeled by human mesenchymal stem cells (MSCs). The concentration ranges selected for each drug and investigational agent were based upon clinically achievable concentrations if the clinical Cmax of the agent was known.
Compounds. The drugs and investigational agents: cirtuvivint (SM08502; NSC835563), CC-671 (NSC850746), vemurafenib (NSC761431), tapotoclax (NSC804041), sotorasib (NSC818433), adagrasib (NSC831453), MRTX-1133 (NSC836407), BAY2416964 (NSC825713), copanlisib (NSC816437), inavolisib (NSC800729), abemaciclib (NSC768073), osimertinib (NSC779217), entinostat (NSC756642), eltanexor (KPT-8602, NSC794443), venetoclax (NSC766270), ceralasertib (NSC777638), bortezomib (NSC756655), olaparib (NSC753686), talazoparib (NSC767125), alisertib (NSC759677), peposertib (NSC802822), gemcitabine (NSC613327), 5-fluorouracil (NSC19893), SN-38 (NSC673596), oxaliplatin (NSC266046), paclitaxel (NSC125973), and doxorubicin (NSC123127), were obtained from the National Cancer Institute (NCI) Developmental Therapeutics Program Chemical Repository. The FDA-approved anticancer drug set is available from the Developmental Therapeutics Program at https://dtp.cancer.gov/organization/dscb/obtaining/available plates.htm. […] The stock solutions were prepared in dimethyl sulfoxide (DMSO, Sigma-Aldrich, St. Louis, MO, cat. D2650), except for the platinum complexes which were prepared in saline (Quality Biological, Gaithersburg, MD, cat. 114-055-101), at 800-fold the tested concentration and stored at -70 degrees C prior to their use. All drugs and investigational agents were tested over a range starting from a high concentration at or near the clinical Cmax and decreasing in half-log increments. If the clinical Cmax for an agent had not been determined, the highest concentration tested was 10 microM.
Cell Culture. All cells were maintained in an incubator at 37 degrees C and 5% CO2 with 95% humidity. The PDC lines were cultured according to standard operating procedures established by the NCI PDMR. Briefly, all PDCs were thawed and cultured in Matrigel-coated flasks prepared with a working solution of 1X Ham's F-12 nutrient mix, without supplementation (Invitrogen, Waltham, MA, cat. 11765054), 100 U/mL penicillin-streptomycin (Invitrogen, cat. 15140122), and 2.5% Matrigel (Corning Inc., Corning, NY, cat. 354248) for the first three passages. The 947758-054-R-J2-PDC line was cultured in 6B/Colon 1A media, which includes advanced DMEM/F-12 (Thermo Fisher Scientific, cat. 12634028), 10 mM HEPES (Thermo Fisher Scientific, cat. 15630080), 1X GlutaMAX supplement (Thermo Fisher Scientific, cat. 35050061), 0.1 mg/mL primocin (InvivoGen, cat. ant-pm-2), 10% defined fetal bovine serum, heat inactivated (HyClone Laboratories Inc., cat. SH30070.03HI), 1.25 mM N-Acetyl-L-cysteine (Sigma-Aldrich, cat. A9165), 10 mM nicotinamide (Sigma-Aldrich, cat. N0636), 1X B-27 supplement (Thermo Fisher Scientific, cat. 17504044), 1X N-2 supplement (Thermo Fisher Scientific, cat. 17502048), and 10 microM Y-27632 dihydrochloride (Tocris Bioscience, cat. 1254). The 876862-298-R-J1-PDC was cultured in 6E media, which includes all 6B/Colon 1A media components plus 50% L-WRN conditioned media (ATCC, cat. CRL-3276), 50 ng/mL recombinant human EGF recombinant protein (hEGF; Thermo Fisher Scientific, cat. PHG0311), 10 ng/mL recombinant human fibroblast growth factor 10 (hGFG-10; PeproTech, cat. 100-26), 1 ng/mL recombinant human fibroblast growth factor 2 (hFGF-2; PeproTech, cat. 100-18B), and 1 µM prostaglandin E2 (PGE2; Tocris, cat. 2296). The 227483-062-R1-J1-PDC line was cultured in Panc media, containing all 6E components except hFGF-2, with the addition of 500 nM SB-431542 (Selleckchem, cat. S1067) and 10 nM gastrin (Tocris, cat. 3006). […]
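Further: spheroids exposed to compounds for seven days before readout.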
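Wherever viability, T/C is given: 100% = DMSO vehicle control wells.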

Cn1ncnc1[C@H]1c2n[nH]c(=O)c3cc(F)cc(c23)N[C@@H]1c1ccc(F)cc1 + CN1CCN(c2cc(C(=O)Nc3cc4cc(-c5cnn(C)c5)ccc4cn3)ccn2)CC1
IC50 (second compound 0.0316 µM): > 100 nM | IC50 (second compound 0.1 µM): > 100 nM | IC50 (second compound 0.316 µM): < 0.316 nM | IC50 (second compound 1 µM): < 0.316 nM | IC50 (second compound 3.16 µM): < 0.316 nM | IC50 (second compound 10 µM): < 0.316 nM | viability, T/C (second compound 0.0316 µM, first compound 0.000316 µM): 126% | viability, T/C (second compound 0.0316 µM, first compound 0.001 µM): 119% | viability, T/C (second compound 0.0316 µM, first compound 0.00316 µM): 107% | viability, T/C (second compound 0.0316 µM, first compound 0.01 µM): 113% | viability, T/C (second compound 0.0316 µM, first compound 0.0316 µM): 107% | viability, T/C (second compound 0.0316 µM, first compound 0.1 µM): 122% | viability, T/C (second compound 0.1 µM, first compound 0.000316 µM): 117% | viability, T/C (second compound 0.1 µM, first compound 0.001 µM): 125% | viability, T/C (second compound 0.1 µM, first compound 0.00316 µM): 114% | viability, T/C (second compound 0.1 µM, first compound 0.01 µM): 116% | viability, T/C (second compound 0.1 µM, first compound 0.0316 µM): 133% | viability, T/C (second compound 0.1 µM, first compound 0.1 µM): 129% | viability, T/C (second compound 0.316 µM, first compound 0.000316 µM): 19.3% | viability, T/C (second compound 0.316 µM, first compound 0.001 µM): 19.1% | viability, T/C (second compound 0.316 µM, first compound 0.00316 µM): 16.3% | viability, T/C (second compound 0.316 µM, first compound 0.01 µM): 19% | viability, T/C (second compound 0.316 µM, first compound 0.0316 µM): 18.8% | viability, T/C (second compound 0.316 µM, first compound 0.1 µM): 16.7% | viability, T/C (second compound 1 µM, first compound 0.000316 µM): 1.63% | viability, T/C (second compound 1 µM, first compound 0.001 µM): 1.39% | viability, T/C (second compound 1 µM, first compound 0.00316 µM): 1.72% | viability, T/C (second compound 1 µM, first compound 0.01 µM): 1.32% | viability, T/C (second compound 1 µM, first compound 0.0316 µM): 3.04% | viability, T/C (second compound 1 µM, first compound 0.1 µM): 3.99% | viability, T/C (second compound 3.16 µM, first compound 0.000316 µM): 1.68% | viability, T/C (second compound 3.16 µM, first compound 0.001 µM): 3.14% | viability, T/C (second compound 3.16 µM, first compound 0.00316 µM): 1.85% | viability, T/C (second compound 3.16 µM, first compound 0.01 µM): 2.2% | viability, T/C (second compound 3.16 µM, first compound 0.0316 µM): 1.94% | viability, T/C (second compound 3.16 µM, first compound 0.1 µM): 6.61% | viability, T/C (second compound 10 µM, first compound 0.000316 µM): 1.05% | viability, T/C (second compound 10 µM, first compound 0.001 µM): 2.11% | viability, T/C (second compound 10 µM, first compound 0.00316 µM): 1.83% | viability, T/C (second compound 10 µM, first compound 0.01 µM): 0.71% | viability, T/C (second compound 10 µM, first compound 0.0316 µM): 3.42% | viability, T/C (second compound 10 µM, first compound 0.1 µM): 4.51%
